The source made the active and inactive calls. No cut-off for these calls is given here.
What was measured:
Format in all cases: cell-based
[1] = target: T1, Peroxisome proliferator-activated receptor alpha (Homo sapiens) (UniProt Q07869); experiment: Transactivation of GAL4-fused human PPARalpha expressed in COS7 cells assessed as efficacy at 10 uM incubated for 24 hrs by luciferase reporter gene assay relative to WY-14643
T1 sequence (whole entry): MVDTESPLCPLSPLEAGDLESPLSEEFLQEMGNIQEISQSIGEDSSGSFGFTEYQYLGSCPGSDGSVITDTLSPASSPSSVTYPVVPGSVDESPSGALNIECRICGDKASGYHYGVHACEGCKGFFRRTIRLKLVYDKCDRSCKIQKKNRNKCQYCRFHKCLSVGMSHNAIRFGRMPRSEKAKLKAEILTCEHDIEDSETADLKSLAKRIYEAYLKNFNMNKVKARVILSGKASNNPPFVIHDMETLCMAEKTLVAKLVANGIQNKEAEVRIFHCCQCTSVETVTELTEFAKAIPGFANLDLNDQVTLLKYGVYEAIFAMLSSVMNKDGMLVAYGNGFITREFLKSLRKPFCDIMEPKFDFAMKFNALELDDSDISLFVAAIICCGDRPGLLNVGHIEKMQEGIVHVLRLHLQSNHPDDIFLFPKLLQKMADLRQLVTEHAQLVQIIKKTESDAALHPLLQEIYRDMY

[2] = target: T2, Peroxisome proliferator-activated receptor gamma (Homo sapiens) (UniProt P37231); experiment: Transactivation of GAL4-fused human PPARgamma expressed in COS7 cells assessed as efficacy at 10 uM incubated for 24 hrs by luciferase reporter gene assay relative to rosiglitazone
T2 sequence (whole entry): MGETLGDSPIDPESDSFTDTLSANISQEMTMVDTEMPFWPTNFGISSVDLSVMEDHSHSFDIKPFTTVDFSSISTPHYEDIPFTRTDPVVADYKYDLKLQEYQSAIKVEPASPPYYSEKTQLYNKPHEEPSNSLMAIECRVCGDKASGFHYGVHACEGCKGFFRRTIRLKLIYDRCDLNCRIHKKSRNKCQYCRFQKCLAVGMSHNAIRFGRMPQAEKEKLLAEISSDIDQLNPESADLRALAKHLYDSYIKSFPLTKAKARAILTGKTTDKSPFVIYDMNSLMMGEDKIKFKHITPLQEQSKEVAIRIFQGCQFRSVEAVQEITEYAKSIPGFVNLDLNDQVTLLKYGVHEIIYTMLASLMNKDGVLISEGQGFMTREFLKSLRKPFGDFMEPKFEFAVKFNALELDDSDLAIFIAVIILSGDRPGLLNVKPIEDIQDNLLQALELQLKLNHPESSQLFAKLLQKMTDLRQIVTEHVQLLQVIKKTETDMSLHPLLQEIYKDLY

[3] = target: T1, Peroxisome proliferator-activated receptor alpha (Homo sapiens); experiment: Agonist activity at GAL4-fused human PPARalpha expressed in COS7 cells incubated for 24 hrs by luciferase reporter gene assay
[4] = target: T2, Peroxisome proliferator-activated receptor gamma (Homo sapiens); experiment: Agonist activity at GAL4-fused human PPARgamma expressed in COS7 cells incubated for 24 hrs by luciferase reporter gene assay

| SMILES | Efficacy [1] | Efficacy [2] | Activity [3] | Activity [4] |
| --- | --- | --- | --- | --- |
| CCOC(=O)CCC1(C)CC(=O)c2cc(O)ccc2O1 (centres undefined) | 16% | inactive | Active | – |
| CC(=O)Oc1ccc2c(c1)C(=O)CC(C)(CCC(C)OC(C)=O)O2 (centres undefined) | 40% | inactive | Active | – |
| Cc1cccc(Nc2cc(Cl)nc(SCC(=O)O)n2)c1C | – | inactive | – | – |
| CC(O)CCC1(C)CC(=O)c2cc(O)ccc2O1 (centres undefined) | 23% | inactive | Active | – |
| COC(=O)CCC1(C)CCc2cc(O)ccc2O1 (centres undefined) | 33% | inactive | Active | – |
| CCCCCC1(C)CC(=O)c2c(ccc(O)c2Cl)O1 (centres undefined) | inactive | 30% | – | Active |

Other lines, results leading:

| Efficacy [1] | Efficacy [2] | Activity [3] | Activity [4] | SMILES |
| --- | --- | --- | --- | --- |
| 35% | inactive | Active | – | C=C(C)CCC1(C)CCc2cc(O)ccc2O1 (centres undefined) |
| 21% | inactive | Active | – | CC1(CCC(=O)O)CCc2cc(O)ccc2O1 (centres undefined) |
| – | – | inactive | inactive | CCCCCC1(C)CC(O)c2cc(O)ccc2O1 (centres undefined) |
| – | – | inactive | inactive | CC(C)=CCCC1(C)CC(O)c2cc(O)ccc2O1 (centres undefined) |
| 23% | inactive | Active | – | CC(C)(O)CCC1(C)CC(=O)c2cc(O)ccc2O1 (centres undefined) |

— ChEMBL document CHEMBL4406903, “Synthesis of benzopyran derivatives as PPARα and/or PPARγ activators” (Bioorg Med Chem, 2019)
